Results published in patent publication US10507199B2, “Molecules in the tryptophan-5-hydroxytryptophan-serotonin-NAS-melatonin/6-hydroxymelatonin sulfate-melatonin receptor 1A pathway in neurological diseases” (priority 2017, dated 2019).
Entries after “also recorded” stand apart in the source; their conditions may differ.

Legend:
[1] = test system: neonatal H-I brain injury (P8 mice, unilateral carotid ligation and 45 min hypoxia); assay: Neonatal hypoxia-ischemia mouse model, Fluoro-Jade B staining and histological score; assay type: in vivo; conditions: melatonin 5 mg/kg IP once daily, 48 hr after H-I
Description: FJB staining was performed at 48 hr post H-I injury of UCL followed by 45 min hypoxia. Fluoro-Jade is an anionic fluorochrome capable of selectively staining degenerating neurons in brain slices. Coronal sections of 16 μm thickness were stained with FJB using the method adapted from Schmued and colleagues.^41 Briefly, tissues mounted on glass slides were sequentially placed in 100% ethanol for 3 min, 70% ethanol for 1 min and deionized water for 1 min. Sections were oxidized for 15 min using 0.06% KMnO4 solution followed by 3 brief rinses in PBS. Slides were then immersed in a 0.001% solution of Fluoro-Jade (Histochem, Jefferson, A R) in 0.1% acetic acid for 30 min, rinsed with PBS, dried for 20 min at 45° C., cleared with xylene and cover slips applied using DPX medium. FJB stained sections were examined under a microscope independently by 2 investigators blinded to the treatment group. […] The total scores for the hippocampus and cortex were compared in melatonin treated and vehicle group.

[2] = test system: neonatal H-I brain injury (P8 mice, unilateral carotid ligation and 60 min hypoxia); assay: Neonatal hypoxia-ischemia mouse model, H&E staining and brain area loss; assay type: in vivo
Description: For histological analyses, after various time points after H-I brain injury, mice were anesthetized with IP injection of 100 mg/kg pentobarbital and then perfused through the left ventricle with PBS. […] The sections corresponding to image 205 up to caudal hippocampus region of Allen mouse brain atlas were directly mounted on SuperFrost Plus® microscope slides. H&E staining was performed on the brain at 7 days post H-I injury comprising of right unilateral carotid ligation and 60 min hypoxia. Brain sections of 50 μm thickness were stained with hematoxylin and eosin (all reagents from Fisher Scientific, Santa Clara, Calif.), dehydrated in graded ethanol solutions, cleared with xylene, examined under light microscope, and subsequently scanned with Epsom V500 photo scanner for measurements. The cross-sectional unaffected and affected areas of the hippocampus, and cortex were measured with NIH imageJ software. A total of 5 coronal slices through the same hippocampus regions were inspected for tissue loss for each animal. The total cross-sectional area in each brain region was calculated in all sections assessed, and the percentage of area loss in the lesioned hemisphere versus the unlesioned hemisphere was determined for each animal. The person performing the measurements was blinded to the study groups. Images of H & E stained sections were quantified using ImageJ software package to measure hemispheric area contralateral and ipsilateral to the H-I brain injury in order to calculate the amount of tissue lost on the ipsilateral hemisphere. The loss of brain tissue ipsilateral to the H-I injury was calculated as a percentage of the non-injured contralateral hemisphere.

[3] = test system: neonatal hypoxic-ischemic brain injury; conditions: melatonin 15 mg/kg; Carloni et al.; cited from earlier work
humans = conditions: cited from earlier work
[4] = test system: melatonin receptor 1A (MT1); conditions: melatonin 10 mg/kg, 30 min prior to H-I; 48 hr post H-I
Description: A model of hypoxia-ischemia in newborn mice pups based on modification of Rice-Vannucci model of unilateral carotid ligation (UCL) followed by hypoxia was used.^40 C57/BL6 wild type and MT1 knockout (KO) mice litters of postnatal day 8 (P8) pups were anesthetized with 2.5% isofluorane and balanced room air, and the right common carotid artery permanently ligated. Time to anesthesia and completion of surgery was timed with a stopwatch to limit the procedure to less than 3 min. Following recovery from anesthesia after 15 min, the pups were placed in hypoxia chamber through which 8% oxygen was delivered at 6 liters per min for 60 min for histology, western blot and immunostaining and 45 mins for FJB staining. Normothermia was maintained by placing the pups in an incubator at 34° C. throughout the experiment except during hypoxia when the temperature was increased to 36° C. to counteract the cooling effect of the 8% 02 gas flow. […]
The lysate was cleared by centrifugation at 19,720×g for 10 min at 4° C., and the supernatant was analyzed by Western blotting.^20 Following right unilateral carotid ligation (UCL), C57/BL6 P8 pups were subjected to 60 min of hypoxia. […] The resulting supernatants were analyzed by Western blotting.^20, 44 Protein concentration was measured by the Bradford method.

cerebral ischemia = conditions: NAS administration; Zhou et al. 2014; cited from earlier work
[5] = test system: mSOD1 G93A ALS transgenic mice; assay: mSOD1 G93A ALS mice: disease onset (rotarod), survival, body weight; assay type: in vivo, mouse
Description: Motor strength and coordination were evaluated using a rotarod. Mice were evaluated at both 15 and 5 rpm rotarod speeds. […] Mortality was defined as the age at death or when the mouse was unable to right itself within 30 second. Body weight was monitored weekly.
To determine whether NAS could be used therapeutically in these subjects, NAS was administered at 15 mg/kg/day by daily IP injection initiated at 6 weeks of age. […] ALS disease onset was defined as failure to pass the rotarod task at 15 rpm. […] Thus NAS administration also prevents motor neuron loss in mSOD1 G93A ALS mice.

WT mice = assay: Body weight of WT mice under NAS; assay type: in vivo, mouse; conditions: NAS 7.5, 15, 30, 45 mg/kg, daily IP injection started at 6 weeks
[6] = test system: motor neurons in lumbar spinal cord of mSOD1 G93A ALS mice; assay: Nissl staining of motor neurons in lumbar spinal cord of mSOD1 G93A ALS mice; assay type: in vivo, mouse; conditions: NAS treatment vs saline vehicle
Description: Nissl staining was performed in mSOD1G93A ALS mice and wild type littermates. Serial lumbar spinal cords were sectioned at 18 μm. Continuous 10 sections per mouse were subjected to Nissl staining. Stained motor neurons were counted in the ventral horns of all sections.

[7] = melatonin 10 mg/kg IP once daily, first dose 30 min before H-I, 60 min hypoxia, 7 days after H-I, H&E
[8] = NAS 15 mg/kg/day, daily IP injection initiated at 6 weeks of age

SMILES | score of FJB positive cells in the cortex [1] | score of FJB positive cells in the hippocampus [1] | hippocampal tissue (area) loss in the brain ipsilateral to carotid ligation [2, 7] [%] | percentage brain tissue loss in the brain hemisphere ipsilateral to carotid ligation compared to the uninjured contralateral hemisphere [2, 7] [%] | reduction in hippocampus damage ([2]; melatonin 10 mg/kg, hippocampus) [%] | reduction in brain damage ([2]; melatonin 10 mg/kg, whole hemisphere) [%] | reduction in brain damage [3] [%] | side effects in humans (humans; humans) | safety profile in human newborns (humans; oxidative stress conditions in human newborns: asphyxia, sepsis, respiratory distress syndrome) | MT1 expression in brains of H-I pups (western blot) [4] | lesion size (cerebral ischemia) | neurological score (cerebral ischemia) | neuronal cell death (cerebral ischemia) | loss of body weight during pathogenesis in mSOD1 G93A mice ([5]; NAS 15 mg/kg, daily IP injection started at 6 weeks) | ALS disease onset (failure to pass the rotarod task at 15 rpm) [5, 8] | survival / mortality [5, 8] | body weight in WT mice (WT mice) | loss of motor neurons in lumbar spinal cord (Nissl staining) [6]
COc1ccc2[nH]cc(CCNC(C)=O)c2c1 [melatonin, N-acetyl-5-methoxytryptamine] | significantly higher score (representing worse damage) in vehicle treated pups compared with melatonin treated pups | significantly higher score (representing worse damage) in vehicle treated pups compared with melatonin treated pups | 28.6 | 9.7 | 57 | 60 | 64 | minimal | good safety profile with no significant complications | significantly ameliorated MT1 loss | – | – | – | – | – | – | – | –
CC(=O)NCCc1c[nH]c2ccc(O)cc12 [NAS, N-acetylserotonin] | – | – | – | – | – | – | – | – | – | – | diminish lesion size | improve neurological score | attenuate neuronal cell death | prevents the loss of body weight | delayed disease onset; also recorded: delays ALS disease onset | extending survival | no effect on body weight | ameliorate the loss of motor neurons
